# Like-named read-outs stand apart in the source and are kept apart here. Where a SMILES comes first, the peptide text is derived from it. [ ]: non-standard residue; d: D form. The star is where a group is joined. Arachidoyl = CCCCCCCCCCCCCCCCCCCC(=O)*; Palmitoyl = CCCCCCCCCCCCCCCC(=O)*; hPhe = N[C@@H](CCc1ccccc1)C(=O)O; Phg = N[C@H](C(=O)O)c1ccccc1; β3hK = NCCCC[C@H](N)CC(=O)O
# How the values were obtained:
# ZIKA protease = target: T1, ZIKA protease (Zika virus, UniProt Q32ZE1); assay: biochemical; settings: for inhibition at 1 µM / inhibition at 50 µM: read-out: inhibition of ZIKV
# T1 construct: a trypsin-like serine protease domain in the N-terminal region of the flaviviral NS3 proteins
# Method: (§1) By catalytic activity of the protease, the cleaved substrate results in increased fluorescence that can be monitored using a BMG Labtech Fluostar OPTIMA Microtiter fluorescence plate reader (excitation wavelength of 320 nm and a monitored emission wavelength of 405 nm). Dilutions were made starting from 10 mM stock solutions in DMSO and final concentrations were measured in triplicates. The inhibitors were preincubated for 15 min with DENV protease (100 nM) in the assay buffer (50 mM Tris-HCl pH 9.0, ethylene glycol (10% v/v), and 0.0016% Brij 58). The enzymatic reaction was initiated by the addition of the FRET substrate (final concentration 50 μM) to obtain a final assay volume of 100 μL per well. The enzymatic activity was monitored for 15 min and determined as a slope of relative fluorescence units per second (RFU/s) for each concentration. The mean of the triplicates were plotted against the corresponding concentration in CDDVault to determine the IC50-values. Analogous procedures were used to determine the inhibitory potency on WNV (Kühl et al., J. Med. Chem. 2020, 63 (15): 8179-8197) and ZIKA protease (Nitsche et al., ACS Med. Chem. Lett. 2019 Feb. 14; 10 (2): 168-174). For selectivity screening of active candidates, similar biochemical assays with human serine proteases trypsin (Weigel et al., J. Med. Chem. 2015, 58 (19), 7719-7733.) and/or thrombin (Nitsche et al., J. Med. Chem. 2013, 56 (21), 8389-8403) were used.
# DENV protease = target: T2, DENV protease (Dengue virus type 2, UniProt P29990); assay: biochemical; settings: read-out: inhibition of DENV
# T2 construct: The virus-encoded dengue protease comprises the amino-terminal 180 amino acids of NS3 (NS3pro) of the polyprotein
# How it was run: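 DENV protease (100 nM) was pre-incubated 15 min with inhibitors in 50 mM Tris-HCl pH 9.0, 10% ethylene glycol, 0.0016% Brij 58. FRET substrate (50 μM final) started the reaction, monitored 15 min as RFU/s slope. IC50 came from triplicate means versus concentration.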
# WNV protease [1] = target: T3, WNV protease (West Nile virus, UniProt P06935); assay: WNV protease assay (analogous procedure); type: biochemical
# T3 construct: a trypsin-like serine protease domain in the N-terminal region of the flaviviral NS3 proteins
# Method: as §1
# WNV protease [2] = target: T3, WNV protease; assay: WNV protease assay (analogous procedure); type: biochemical; settings: read-out: IC50 for WNNV
# human Trypsin = human Trypsin (Homo sapiens, UniProt P07477); assay: Selectivity screening, human serine protease trypsin; type: biochemical; settings: read-out: inhibition of human Trypsin
# Method: as §1
# human Thrombin = human Thrombin (Homo sapiens, UniProt P00734); assay: Selectivity screening, human serine protease thrombin; type: biochemical; settings: read-out: inhibition of human Thrombin
# Method: as §1
# T3 sequence (P06935 1424-1463): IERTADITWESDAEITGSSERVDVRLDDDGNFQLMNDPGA
# T3 sequence (P06935 1502-1679): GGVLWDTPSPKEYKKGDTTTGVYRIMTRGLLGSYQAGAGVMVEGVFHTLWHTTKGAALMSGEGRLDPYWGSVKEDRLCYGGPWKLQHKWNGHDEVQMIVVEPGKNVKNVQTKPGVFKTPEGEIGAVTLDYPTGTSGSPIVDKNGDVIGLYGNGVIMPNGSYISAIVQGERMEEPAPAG
# T2 sequence (P29990 1398-1437): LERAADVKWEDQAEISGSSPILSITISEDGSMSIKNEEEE
# T2 sequence (P29990 1476-1653): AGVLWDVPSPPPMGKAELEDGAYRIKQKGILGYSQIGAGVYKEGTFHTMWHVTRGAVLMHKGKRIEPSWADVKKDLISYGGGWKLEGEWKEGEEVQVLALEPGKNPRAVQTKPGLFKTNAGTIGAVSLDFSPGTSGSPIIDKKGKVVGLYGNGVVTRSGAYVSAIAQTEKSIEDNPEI
# T1 sequence (Q32ZE1 1499-1676): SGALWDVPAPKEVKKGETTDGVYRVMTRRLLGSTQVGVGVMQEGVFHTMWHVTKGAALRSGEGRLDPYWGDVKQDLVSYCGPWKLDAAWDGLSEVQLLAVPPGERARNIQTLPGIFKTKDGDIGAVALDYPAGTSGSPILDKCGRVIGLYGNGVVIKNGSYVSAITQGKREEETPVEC
# T1 sequence (Q32ZE1 1421-1460): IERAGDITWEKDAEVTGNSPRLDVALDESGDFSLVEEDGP
SMILES,IC50 (ZIKA protease) [µM],inhibition at 1 µM (ZIKA protease; at 1 μM) [%],inhibition at 50 µM (ZIKA protease; at 50 μM) [%],inhibition at 50 µM (DENV protease) [%],inhibition at 50 µM (WNV protease [1]) [%],IC50 (WNV protease [2]) [µM],inhibition at 5 µM (human Trypsin; at 5 μM) [%],inhibition at 25 µM (human Trypsin; at 25 μM) [%],inhibition at 5 µM (human Thrombin; at 5 μM) [%],inhibition at 50 µM (ZIKA protease) [%],inhibition at 5 µM (human Trypsin) [%],inhibition at 25 µM (human Trypsin) [%],inhibition at 5 µM (human Thrombin) [%],inhibition at 1 µM (DENV protease; at 1 μM) [%],inhibition at 1 µM (ZIKA protease) [%],inhibition at 1 µM (DENV protease) [%],"inhibition at 1 µM (WNV protease [1]; at 1 μM, read-out: inhibition of WNNV) [%]"
CCCCCCCCCCCCCCCC(=O)N[C@@H](CCCCN)CC(=O)N1CCC[C@H]1C(=O)N[C@@H](C)C(=O)N[C@@H](CCc1ccccc1)C(N)=O [compound 117] (Palmitoyl-[β3hK]PA[hPhe]-NH2),≤ 25,≥ 10,≥ 65,≥ 25,≥ 25,≤ 40,< 10,< 20,< 5,,,,,,,,
CCCCCCCCCCCCCCCC(=O)N[C@@H](CCCCN)C(=O)N1CCC[C@H]1C(=O)N[C@@H](C)C(=O)N[C@@H](CCc1ccccc1)C(=O)C(N)=O [compound 6],≤ 25,,,≥ 25,≥ 25,≤ 40,,,,≥ 65,< 10,< 20,< 5,,,,
CCCCCCCCCCCCCCCC(=O)N[C@H](CCCCN)C(=O)N[C@@H](C)C(=O)N[C@@H](C)C(=O)N[C@@H](CCCCN)C(N)=O [compound 115] (Palmitoyl-[dK]AAK-NH2),≤ 25,≥ 10,≥ 65,≥ 25,≥ 25,≤ 40,< 10,< 20,< 5,,,,,,,,
CCCCCCCCCCCCCCCC(=O)N[C@@H](CCCCN)C(=O)N1CCC[C@H]1C(=O)N[C@@H](Cc1cnc[nH]1)C(=O)N[C@@H](CCc1ccccc1)C(N)=O [compound 11] (Palmitoyl-KPH[hPhe]-NH2),≤ 25,≥ 10,≥ 65,≥ 25,≥ 25,≤ 40,< 10,< 20,< 5,,,,,,,,
CCCCCCCCCCCCCCCC(=O)N[C@@H](CCCCN)C(=O)N[C@@H](C)C(=O)N[C@@H](C)C(=O)N[C@@H](Cc1cnc[nH]1)C(N)=O [compound 168] (Palmitoyl-KAAH-NH2),≤ 25,≥ 10,≥ 65,≥ 25,≥ 25,≤ 40,< 10,< 20,< 5,,,,,,,,
CCCCCCCCCCCCCCCC(=O)N[C@@H](CCCCN)CC(=O)N1CCC[C@H]1C(=O)N[C@@H](C)C(=O)N[C@@H](Cc1ccccc1)C(N)=O [compound 116] (Palmitoyl-[β3hK]PAF-NH2),≤ 25,≥ 10,≥ 65,≥ 25,≥ 25,≤ 40,< 10,< 20,< 5,,,,,,,,
CCCCCCCCCCCCCCCC(=O)N[C@@H](CCCCN)C(=O)N[C@@H](C)C(=O)N[C@@H](C)C(=O)N[C@H](CCc1ccccc1)C(=O)C(N)=O [compound 5],≤ 25,,,≥ 25,≥ 25,≤ 40,,,,≥ 65,< 10,< 20,< 5,,,,
CCCCCCCCCCCCCCCC(=O)N[C@@H](CCCCN)C(=O)N[C@@H](C)C(=O)N[C@@H](C)C(=O)N[C@H](Cc1c[nH]cn1)C(N)=O [compound 171] (Palmitoyl-KAA[dH]-NH2),≤ 25,,≥ 65,≥ 25,≥ 25,≤ 40,< 10,< 20,< 5,,,,,,,,
CCCCCCCCCCCCCCCCCCCC(=O)N[C@@H](CCCCN)C(=O)N1CCC[C@H]1C(=O)N[C@@H](C)C(=O)N[C@@H](CCCCN)C(N)=O [compound 125] (Arachidoyl-KPAK-NH2),≤ 25,≥ 10,≥ 65,≥ 25,≥ 25,≤ 40,< 10,< 20,< 5,,,,,≥ 20,,,
CCCCCCCCCCCCCCCC(=O)N[C@@H](CCCCN)C(=O)N[C@@H](C)C(=O)N[C@@H](C)C(=O)N[C@@H](Cc1c[nH]c2ccccc12)C(N)=O [compound 92] (Palmitoyl-KAAW-NH2),≤ 25,≥ 10,≥ 65,≥ 25,≥ 25,≤ 40,< 10,< 20,< 5,,,,,,,,
CCCCCCCCCCCCCCCC(=O)N[C@@H](CCCCN)CN1CCC[C@H]1C(=O)N[C@@H](C)C(=O)N[C@H](Cc1c[nH]c2ccccc12)C(N)=O [compound 122],≤ 25,,≥ 65,≥ 25,≥ 25,≤ 40,< 10,< 20,< 5,,,,,,,,
CCCCCCCCCCCCCCCC(=O)N[C@@H](CCCCN)C(=O)N1CCC[C@H]1C(=O)N[C@@H](C)C(=O)N[C@@H](C(N)=O)c1ccc(OCc2ccccc2)cc1 [compound 129],≤ 25,,,≥ 25,≥ 25,≤ 40,,,,≥ 65,< 10,< 20,< 5,,≥ 10,≥ 20,
CCCCCCCCCCCCCCCC(=O)N[C@@H](CCCCN)C(=O)N1CCC[C@H]1C(=O)N[C@H](C(=O)N[C@@H](CCCCN)C(N)=O)c1ccccc1 [compound 13] (Palmitoyl-KP[Phg]K-NH2),,,,≥ 25,≥ 25,≤ 40,< 10,< 20,< 5,,,,,,,,
CCCCCCCCCCCCCCCC(=O)N[C@@H](CCCCN)C(=O)N[C@@H](C)C(=O)N[C@@H](CCCCN)C(C)=O [compound 175],≤ 25,,≥ 65,≥ 25,≥ 25,≤ 40,< 10,< 20,< 5,,,,,,,,
CCCCCCCCCCCCCCCC(=O)N[C@@H](CCCCN)C(=O)N[C@@H](C)C(=O)N[C@@H](C)C(=O)N[C@@H](CCCCN)C(=O)c1ccccc1 [compound 137],≤ 25,,,≥ 25,≥ 25,≤ 40,,,,≥ 65,< 10,< 20,< 5,,≥ 10,≥ 20,≥ 10
CCCCCCCCCCCCCCCC(=O)N[C@@H](CCCCN)C(=O)N[C@@H](C)C(=O)N[C@@H](C)C(=O)N[C@@H](C=O)CCCCN [compound 181] (Palmitoyl-KAA[dK]-aldehyde),,,,≥ 25,≥ 25,≤ 40,,< 20,< 5,,,,,,,,
CCCCCCCCCCCCCCCC(=O)N[C@H](C)C(=O)N1C[C@H](Oc2ccncc2)C[C@H]1C(=O)N[C@H](C)C(=O)N[C@H](CCCCN)C(N)=O [compound 8],≤ 25,,≥ 65,≥ 25,≥ 25,≤ 40,< 10,< 20,< 5,,,,,,,,
CCCCCCCCCCCCCCCC(=O)N[C@@H](CCCCN)C(=O)N1CCC[C@H]1C(=O)N[C@@H](C)C(=O)N[C@H](Cc1ccccc1)C(N)=O [compound 123] (Palmitoyl-KPA[dF]-NH2),≤ 25,≥ 10,≥ 65,≥ 25,≥ 25,≤ 40,< 10,< 20,< 5,,,,,,,,

# — patent US20250059231A1, “Protease inhibitors” (priority 2021, published 2025)
